# Legend:
# [1] = molecular target: T1, recombinant human TRPM8 stably expressed in HEK293 cells (hTRPM8) (Homo sapiens, UniProt Q7Z2W7); assay: Ca2+ microfluorimetry screen for agonist/antagonist activity in hTRPM8-HEK293 cells; format: cell-based
# T1 construct: expressed in transfected cells
# Excerpt: We first evaluated the series of compounds 20–29 synthesized using the Passerini‐Adamantane reaction. All compounds were screened for channel agonism and antagonism on recombinant human TRPM8 stably expressed in HEK293 cells (hTRPM8‐HEK293) with Ca^2+ microfluorimetry. […] Compound‐induced TRPM8‐mediated Ca^2+ influx was confirmed using untransfected HEK293 cells and the channel blocker AMTB. […] The concentration of compounds to reach half of channel activation (EC50) or to block half‐channel activity evoked by WS‐12 (IC50) are reported in Table 1, along with the percentage of maximal activation or blockade (Efficacy).
# Assays were conducted to assess the channel activity of the recombinant hTRPM8 stably expressed in HEK‐293 cells. HEK‐293‐hTRPM8 cells were cultured in a monolayer using a DMEM GlutaMax with 10% FBS and 1% P/S and maintained at 37 °C in 5% CO2. For experiments, cells were prepared and seeded at the indicated densities. To evaluate compound effectiveness against hTRPM8 activity, microfluorometry‐based calcium flux assays were performed using Fluo‐4 NW Ca^2+ dye and fluorescence detection. HEK cell lines expressing hTRPM8 were seeded in 96‐well plates and incubated with the dye‐loading solution. Ion channel activity was measured using a plate reader, and fluorescence intensity changes were recorded following the addition of vehicle, compound at varying concentrations, and antagonist (10 μM AMTB). Data analysis included calculating the Z‐factor for each assay and normalizing compound effects to […]. Data were analyzed to determine the concentration exerting half‐maximal inhibition (IC50) or activation (EC50) of agonist‐induced calcium elevation, using GRAPHPAD PRISM8® software (Boston, MA, USA). All experiments were conducted in triplicate, and results are presented as mean ± standard deviation.
# [2] = system: WS‐12‐evoked action potentials in primary cultures of murine DRG sensory neurons; assay: Multielectrode array (MEA): WS-12-evoked action potential firing in DRG sensory neurons; format: cell-based; details: Mus musculus, Neuron; 0.43 μM compound, 1 μM WS-12, MEA, P2/P1; read-out: inhibition of WS‐12‐induced action potential firing
# Procedure: Complementarily, we examined the effect of compound 23 on WS‐12‐evoked action potentials in primary cultures of murine DRG sensory neurons. For this task, we recorded neuronal excitability using multielectrode arrays (MEAs). […] A protocol of two sequential pulses of WS‐12 interspersed with a washing pulse was applied to correct for channel desensitization (Fig. 7A, upper recording). Compounds 23 and AMTB (0.43 and 10 μM, respectively) were applied 1 min before and during the second WS‐12 pulse (Fig. 7A, second, third, and fourth recordings). As depicted in Fig. 7B, compound 23 virtually abolished action potential firings induced by WS‐12 application in murine primary afferent neurons (≥ 75%). Thus, compound 23 appears to be a potent inhibitor of WS12‐evoked firing frequency, even surpassing the efficacy of AMTB […] (Fig. 7B).
# Primary cultures of neonatal dorsal root ganglia were used for multielectrode array (MEA) and patch‐clamp experiments following established methodologies previously described. Neonatal dorsal root ganglia (DRGs) were obtained from Wistar rats (3–5 days old) and were isolated and digested with 0.25% (w/v) collagenase (type IA) in DMEM GlutaMax with 1% (v/v) penicillin/streptomycin (P/S) solution for 1 h at 37 °C in a 5% CO2 Thermo Scientific incubator. […]
# T1 sequence (Q7Z2W7 whole entry): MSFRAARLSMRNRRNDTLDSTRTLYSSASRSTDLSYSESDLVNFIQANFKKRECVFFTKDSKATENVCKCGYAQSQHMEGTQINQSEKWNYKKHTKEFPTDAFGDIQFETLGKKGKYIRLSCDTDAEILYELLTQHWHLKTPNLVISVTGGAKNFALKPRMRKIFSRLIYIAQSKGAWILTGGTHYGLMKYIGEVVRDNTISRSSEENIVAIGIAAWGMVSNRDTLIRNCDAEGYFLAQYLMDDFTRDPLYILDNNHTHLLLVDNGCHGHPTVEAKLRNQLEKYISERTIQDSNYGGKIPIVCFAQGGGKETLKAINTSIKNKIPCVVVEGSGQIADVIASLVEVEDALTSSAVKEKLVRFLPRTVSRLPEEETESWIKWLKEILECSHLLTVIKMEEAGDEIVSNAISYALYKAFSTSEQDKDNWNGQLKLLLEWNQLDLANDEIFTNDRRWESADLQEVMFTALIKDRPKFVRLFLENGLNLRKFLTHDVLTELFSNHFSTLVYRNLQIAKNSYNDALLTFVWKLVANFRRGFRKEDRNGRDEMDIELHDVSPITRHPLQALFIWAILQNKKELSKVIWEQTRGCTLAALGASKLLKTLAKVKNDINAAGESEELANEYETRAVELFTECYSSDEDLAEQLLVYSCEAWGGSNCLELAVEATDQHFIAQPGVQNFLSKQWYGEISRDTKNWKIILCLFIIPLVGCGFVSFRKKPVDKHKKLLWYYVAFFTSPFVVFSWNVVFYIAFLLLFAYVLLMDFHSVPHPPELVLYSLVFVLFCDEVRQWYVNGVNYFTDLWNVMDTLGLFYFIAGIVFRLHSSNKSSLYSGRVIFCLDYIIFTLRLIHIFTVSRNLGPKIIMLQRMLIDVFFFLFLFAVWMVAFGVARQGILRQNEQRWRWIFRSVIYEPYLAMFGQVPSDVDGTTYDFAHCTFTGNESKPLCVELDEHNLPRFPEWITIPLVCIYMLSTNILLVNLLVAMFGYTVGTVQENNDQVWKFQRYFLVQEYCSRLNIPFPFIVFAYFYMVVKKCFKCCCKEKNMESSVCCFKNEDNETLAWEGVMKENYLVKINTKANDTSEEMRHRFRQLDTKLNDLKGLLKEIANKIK
compound,measurement,setting,value
"O=C(COC(=O)c1ccccc1-c1ccccc1)NC12CC3CC(CC(C3)C1)C2 [Compound 23, 2‐((3S,5S,7S)‐adamantan‐1‐ylamino)‐2‐oxoethyl [1,1′‐biphenyl]‐2‐carboxylate]",Activity (agonist/antagonist),"[1]; hTRPM8-HEK293, agonism = compound-induced Ca2+ influx, antagonism = modulation of WS-12-induced Ca2+ influx",Antagonist
same,IC50,"[1]; hTRPM8-HEK293, block of half channel activity evoked by WS-12, mean ± SD, N = 3, read-out: IC50",200 nM
same,Hill coefficient,"[1]; hTRPM8-HEK293 Ca2+ microfluorimetry dose-response, mean ± SD",0.5 ± 0.9
same,inhibition at 0.43 µM,[2],≥ 75%

# From PMC12220852, “An adamantane‐based ligand as a novel chemical tool for thermosensory TRPM8 channel therapeutic modulation” (The Febs Journal, 2025)
